{"source": "ChEMBL document CHEMBL1125810", "about": "“Acyclic analogues of 2-(4-phenylpiperidino)cyclohexanol (vesamicol): conformationally mobile inhibitors of vesicular acetylcholine transport” (J Med Chem, 1991)"}
{"target": "T1, Vesicular acetylcholine transporter (Torpedo californica, UniProt P81721)", "T1 sequence (P81721 whole entry)": "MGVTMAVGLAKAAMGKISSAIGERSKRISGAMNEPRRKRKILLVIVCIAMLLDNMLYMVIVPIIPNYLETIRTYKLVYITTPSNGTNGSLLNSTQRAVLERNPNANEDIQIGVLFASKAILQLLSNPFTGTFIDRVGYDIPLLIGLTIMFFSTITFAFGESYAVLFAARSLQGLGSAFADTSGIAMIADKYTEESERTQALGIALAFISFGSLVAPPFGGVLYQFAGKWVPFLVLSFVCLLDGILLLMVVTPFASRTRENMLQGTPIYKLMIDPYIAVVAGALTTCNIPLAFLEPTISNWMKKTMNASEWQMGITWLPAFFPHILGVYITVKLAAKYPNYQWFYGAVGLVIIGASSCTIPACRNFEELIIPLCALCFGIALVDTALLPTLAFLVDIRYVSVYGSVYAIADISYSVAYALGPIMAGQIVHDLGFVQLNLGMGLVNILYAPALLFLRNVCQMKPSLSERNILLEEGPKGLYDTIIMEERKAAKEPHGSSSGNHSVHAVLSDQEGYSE", "assay": "Displacement of [3H]vesamicol from Vesamicol receptor of Torpedo californica", "parameters": "species or system Tetronarce californica", "units": {"IC50": "µM"}}
{"compound": "OC(Cc1cccc(I)c1)CN1CCC(c2ccccc2)CC1", "note": "(centres undefined)", "IC50": 0.073}
{"compound": "OC(Cc1cccc2ccccc12)CN1CCC(c2ccccc2)CC1", "note": "(centres undefined)", "IC50": 1.4}
{"compound": "OC(Cc1cccc(Br)c1)CN1CCC(c2ccccc2)CC1", "note": "(centres undefined)", "IC50": 0.073}
{"compound": "OC(Cc1ccc(Br)cc1)CN1CCN(c2ccccc2)CC1", "note": "(centres undefined)", "IC50": 1.54}
{"compound": "Oc1cccc(CC(O)CN2CCC(c3ccccc3)CC2)c1", "note": "(centres undefined)", "IC50": 0.52}
{"compound": "OC(Cc1ccc2ccccc2c1)CN1CCC(c2ccccc2)CC1", "note": "(centres undefined)", "IC50": 0.145}
{"compound": "OC(Cc1cccc(Br)c1)CN1CCN(c2ccccc2)CC1", "note": "(centres undefined)", "IC50": 0.99}
{"compound": "Oc1ccc(CC(O)CN2CCC(c3ccccc3)CC2)cc1", "note": "(centres undefined)", "IC50": 0.22}
{"compound": "COc1cccc(CC(O)CN2CCC(c3ccccc3)CC2)c1", "note": "(centres undefined)", "IC50": 0.115}
